Results: patent US20210261621A1, “Preparation of Dilipid Polymixins and Use Thereof as Antimicrobial Adjuvants” (priority 2018, published 2021)
≈ marks a conversion by molar mass, not a printed value. Where two headings read alike, the source gives them in different places. Positions of bridges follow the written chain, without caps; N, C: chain ends. Non-standard residues stand in square brackets, D forms with d. Residues, ends and D or L forms follow the SMILES beside them. *: point of attachment. Acetyl(1-adamantyl) = O=C(CC12CC3CC(CC(C3)C1)C2)*; Lauroyl = CCCCCCCCCCCC(=O)*; Dab = NCC[C@H](N)C(=O)O

Assays:
[1] = system: MRSA ATCC 33592; format: cell-based, Staphylococcus aureus; details: MRSA ATCC 33592 (methicillin-resistant Staphylococcus aureus)
From the text: (§1) Bacterial strains were either obtained from the American Type Culture Collection (ATCC), Canadian National Intensive Care Unit (CAN-ICU) surveillance study or the Canadian Ward Surveillance (CANWARD) study. Strains from both CAN-ICU and CANWARD are isolates recovered from patients diagnosed with a presumed infectious disease that were admitted in a participating medical center across Canada. Efflux-deficient strain PAO200 (lacking MexAB-OprM efflux system) and PA0750 (lacking MexAB-OprM, MexCD-OprJ, MexEF-OprN, MexJK and MexXY efflux systems, and the outer membrane protein OpmH) were kindly gifted by Dr. Ayush Kumar (University of Manitoba).
(§2) The in vitro antibacterial activity of the compounds studied were assessed by broth microdilution susceptibility testing following CLSI guidelines. Bacterial cultures were grown overnight prior to the assay. The overnight grown cultures were diluted in saline to 0.5 McFarland turbidity, followed by 1:50 dilution in Mueller-Hinton broth (MHB) for inoculation to a final concentration of approximately 5×10^5 colony forming units/mL. Testing was performed on 96-well plates where the tested compounds were 2-fold serially diluted in MHB and incubated with equal volumes of bacterial inoculum at 37° C. for 18 h. […] Wells containing MHB with or without bacterial cells were used as positive or negative control, respectively.

[2] = system: S. aureus ATCC 29213; format: cell-based, Staphylococcus aureus; details: S. aureus ATCC 29213
From the text: as §1, §2

[3] = system: E. faecalis ATCC 29212; format: cell-based
From the text: as §1, §2

[4] = system: E. faecium ATCC 27270; format: cell-based
From the text: as §1, §2

[5] = system: S. pneumoniae ATCC 49619; format: cell-based
From the text: as §1, §2

[6] = system: P. aeruginosa ATCC 27853; format: cell-based, Pseudomonas aeruginosa; details: P. aeruginosa ATCC 27853
From the text: as §1, §2

[7] = system: P. aeruginosa CAN-ICU 62308; format: cell-based, Pseudomonas aeruginosa
From the text: as §1, §2

[8] = system: P. aeruginosa PA095; format: cell-based, Pseudomonas aeruginosa
From the text: as §1, §2

[9] = system: P. aeruginosa PA100036; format: cell-based, Pseudomonas aeruginosa
From the text: as §1, §2

[10] = system: P. aeruginosa PA101885; format: cell-based, Pseudomonas aeruginosa
From the text: as §1, §2

[11] = system: P. aeruginosa PA259-96918; format: cell-based, Pseudomonas aeruginosa
From the text: as §1, §2

[12] = system: P. aeruginosa PA260-97103; format: cell-based, Pseudomonas aeruginosa
From the text: as §1, §2

[13] = system: P. aeruginosa PA262-101856; format: cell-based, Pseudomonas aeruginosa
From the text: as §1, §2

[14] = system: P. aeruginosa PA264-104354; format: cell-based, Pseudomonas aeruginosa
From the text: as §1, §2

[15] = system: P. aeruginosa PAO1; format: cell-based, Pseudomonas aeruginosa
From the text: as §1, §2

[16] = system: K. pneumoniae 116381; format: cell-based, Klebsiella pneumoniae; details: K. pneumoniae 116381
From the text: as §1, §2

[17] = system: K. pneumoniae ATCC 13883; format: cell-based, Klebsiella pneumoniae; details: K. pneumoniae ATCC 13883
From the text: as §1, §2

[18] = system: E. coli CANWARD-2011 97615; format: cell-based, Escherichia coli
From the text: as §1, §2

[19] = system: P. aeruginosa CANWARD-2011 96846; format: cell-based, Pseudomonas aeruginosa
From the text: as §1, §2

[20] = system: pig erythrocytes; details: red cells of pig, 1 h, 512

Compound | MIC [1] [µg/mL] | MIC [2] [µg/mL] | MIC ([3]; E. faecalis ATCC 29212) [µg/mL] | MIC ([4]; E. faecium ATCC 27270) [µg/mL] | MIC ([5]; S. pneumoniae ATCC 49619) [µg/mL] | MIC [6] [µg/mL] | MIC ([7]; P. aeruginosa CAN-ICU 62308) [µg/mL] | MIC ([8]; P. aeruginosa PA095) [µg/mL] | MIC ([9]; P. aeruginosa PA100036) [µg/mL] | MIC ([10]; P. aeruginosa PA101885) [µg/mL] | MIC ([11]; P. aeruginosa PA259-96918) [µg/mL] | MIC ([12]; P. aeruginosa PA260-97103) [µg/mL] | MIC ([13]; P. aeruginosa PA262-101856) [µg/mL] | MIC ([14]; P. aeruginosa PA264-104354) [µg/mL] | MIC ([15]; P. aeruginosa PAO1 (wild type)) [µg/mL] | MIC [16] [µg/mL] | MIC [17] [µg/mL] | MIC [18] [µg/mL] | MIC [19] [µg/mL] | % Hemolysis at 512 μg/mL of polymyxin [20] [%] | also measured
colistin [reference compound] | 512 | 256 | 256 | 256 | 512 | 2 | 2 | 0.25 | 1 | 1 | 0.25 | 0.5 | 2 | 2 | 1 | 1 | ≤0.25 |  |  |  | 
CC(C)C[C@@H]1NC(=O)[C@@H](Cc2ccccc2)NC(=O)[C@H](CCN)NC(=O)[C@@H](NC(=O)[C@H](CCN)NC(=O)[C@@H](NC(=O)[C@H](CCNC(=O)CC23CC4CC(CC(C4)C2)C3)NC(=O)CC23CC4CC(CC(C4)C2)C3)[C@@H](C)O)CCNC(=O)[C@H]([C@@H](C)O)NC(=O)[C@H](CCN)NC(=O)[C@H](CCN)NC1=O [Compound 4, Diadamantane Acetic Acid (Di-Adamantyl) Polymyxin] ({Acetyl(1-adamantyl)}-[Dab](Acetyl(1-adamantyl))T[Dab][Dab][Dab][dF]L[Dab][Dab]T; lactam 4-C) | 32 (≈ 22.6 µM) | 16 (≈ 11.3 µM) | 32 (≈ 22.6 µM) | 16 (≈ 11.3 µM) | 32 (≈ 22.6 µM) | 16 (≈ 11.3 µM) | 16 (≈ 11.3 µM) | 4 (≈ 2.83 µM) | 8 (≈ 5.65 µM) | 8 (≈ 5.65 µM) | 8 (≈ 5.65 µM) | 4 (≈ 2.83 µM) | 8 (≈ 5.65 µM) | 8 (≈ 5.65 µM) | 4 (≈ 2.83 µM) | >128 | >128 | 64 (≈ 45.2 µM) | 32 (≈ 22.6 µM) | 3.2 ± 0.4 | 
CCCCCCCCCCCC(=O)NCC[C@H](NC(=O)CCCCCCCCCCC)C(=O)N[C@H](C(=O)N[C@@H](CCN)C(=O)N[C@H]1CCNC(=O)[C@H]([C@@H](C)O)NC(=O)[C@H](CCN)NC(=O)[C@H](CCN)NC(=O)[C@H](CC(C)C)NC(=O)[C@@H](Cc2ccccc2)NC(=O)[C@H](CCN)NC1=O)[C@@H](C)O [Compound 3, Didodecanoic Acid (Di-C12) Polymyxin] (Lauroyl-[Dab](Lauroyl)T[Dab][Dab][Dab][dF]L[Dab][Dab]T; lactam 4-C) | >128 | >128 |  |  |  | >128 |  |  |  |  |  |  |  |  |  | >128 | >128 | 64 (≈ 44.8 µM) | >128 | 49.7 ± 3.3 | MIC ([3]; ATCC 29212): 64 µg/mL (≈ 44.8 µM); MIC ([4]; ATCC 27270): 8 µg/mL (≈ 5.6 µM); MIC ([5]; ATCC 49619): 64 µg/mL (≈ 44.8 µM); MIC ([7]; CAN-ICU 62308): 64 µg/mL (≈ 44.8 µM); MIC ([8]; PA095): 8 µg/mL (≈ 5.6 µM); MIC ([9]; PA100036): 32 µg/mL (≈ 22.4 µM); MIC ([10]; PA101885): 32 µg/mL (≈ 22.4 µM); MIC ([11]; PA259-96918): 16 µg/mL (≈ 11.2 µM); MIC ([12]; PA260-97103): 32 µg/mL (≈ 22.4 µM); MIC ([13]; PA262-101856): 32 µg/mL (≈ 22.4 µM); MIC ([14]; PA264-104354): 64 µg/mL (≈ 44.8 µM); MIC ([15]; PAO1): 32 µg/mL (≈ 22.4 µM)
